What was measured:
[1] = Example 2.1 rhamnolipid precipitation, filtration, centrifugation: lanthanum; details: for Treatment 2: Rhamnolipid and Filtration Cf / Treatment 3: Rhamnolipid and Centrifugation Cc / Treatment 1: Rhamnolipid Only Cr: lanthanum concentration after treatment; for Treatment 1: Rhamnolipid Only (Rr) efficiency of removal / Treatment 2: Rhamnolipid and Filtration (Rf) efficiency of removal / Treatment 3: Rhamnolipid and Centrifugation (Rc) efficiency of removal: lanthanum
Procedure: (§1) Structural variants of synthetic glycolipids were used to show the effect of the number and length of the hydrophobic tail(s) on rhamnolipid as a chemical precipitant. […] Solutions (10 mM) were made using nanopure water (≥18 MΩ-cm) then adjusted to a pH of 6.9±0.05 with HNO3 and NaOH. These solutions were made in advance and stored in the cold room for up to one month. They were brought to room temperature before each experiment.
(§2) Three metals were tested for binding with rhamnolipid. Lead as […] (Fisher Scientific, Waltham, MA, 99% purity), was chosen to represent a metal with high rhamnolipid-metal conditional stability constant; lanthanum as La(NO3)3 6(H2O) (Sigma-Aldrich, St. Louis, MO, 99.99% purity) was chosen as a representative REE; and magnesium as Mg(NO3)2 6(H2O) (Sigma-Aldrich, St. Louis, MO, 99% purity) was chosen to represent a metal with a low rhamnolipid-metal conditional stability constant (Hogan et al., 2017). Metal solutions (5 mM) were made using nanopure water (≥18 MΩ-cm) in 20 ml glass scintillation vials. All solutions were used within 15 min to ensure minimal adsorption to the glass vial.
(§3) Three glycolipid-based treatments were evaluated to remove metal from solution: (1) the addition of glycolipid with no further treatment (gravitational precipitation), (2) the addition of a glycolipid followed by filtration or (3) the addition of a glycolipid followed by centrifugation. Each metal (Pb, La, and Mg) was evaluated separately with each of the glycolipid structures. For each experiment, a metal solution was mixed with a glycolipid solution in a 1.7 ml reaction tube at varying molar ratios of glycolipid to metal: 0:1 (glycolipid-free control), 2:1, 5:1, and 10:1. The reactions were mixed in the order of nanopure water (≥18 MΩ-cm), glycolipid solution (10 mM), then metal solution (5 mM). The metal and glycolipid solutions were continuously stirred as they were aliquoted into the reaction tubes. The experiment was performed in triplicate.
(§4) The reaction tubes were mixed overnight (16 to 24 h) and then three samples were collected from each tube to measure the effect of each of the three treatments: a glycolipid only treatment sample, a filtration treatment sample, and a centrifugation treatment sample. Briefly, for the glycolipid only treatment samples all tubes were vortexed for approximately 5 sec immediately before removing 0.1 ml into a dilution tube of 2% trace metal grade nitric acid (12 to 14 ml) to minimize the settling of particles. For the filtration samples each reaction tube was vortexed for 5 sec and then a 0.6 ml aliquot was collected with a 1 ml syringe. A GHP acrodisc disk filter (hydrophilic polypropylene membrane, 0.45 μm pore size, 25 mm disc diameter) from Pall Life Sciences (Port Washington, New York) was then placed onto the end of the syringe and the solution was pushed through the filter. The void space in the disk filter holds approximately 0.5 ml, therefore around 0.1 ml of filtrate was collected into a dilution tube. For the centrifugation sample, the remaining solution was centrifuged at 10,000 RCF for 15 min. Approximately 0.1 ml of the supernatant was aliquoted into a dilution tube. Following collection, all samples were taken for metal analysis using ICP-MS.

[2] = Example 2.1 rhamnolipid precipitation, filtration, centrifugation: magnesium; details: for Treatment 2: Rhamnolipid and Filtration Cf / Treatment 3: Rhamnolipid and Centrifugation Cc / Treatment 1: Rhamnolipid Only Cr: magnesium concentration after treatment; for Treatment 1: Rhamnolipid Only (Rr) efficiency of removal / Treatment 2: Rhamnolipid and Filtration (Rf) efficiency of removal / Treatment 3: Rhamnolipid and Centrifugation (Rc) efficiency of removal: magnesium
Procedure: as §1, §2, §3, §4

[3] = Example 2.1 rhamnolipid precipitation, filtration, centrifugation: lead; details: for Treatment 2: Rhamnolipid and Filtration Cf / Treatment 3: Rhamnolipid and Centrifugation Cc / Treatment 1: Rhamnolipid Only Cr: lead concentration after treatment; for Treatment 1: Rhamnolipid Only (Rr) efficiency of removal / Treatment 2: Rhamnolipid and Filtration (Rf) efficiency of removal / Treatment 3: Rhamnolipid and Centrifugation (Rc) efficiency of removal: lead
Procedure: as §1, §2, §3, §4

For `CCCCCCCCCCCCCCCC(CC(=O)O)OC1O[C@@H](C)[C@H](O)[C@@H](O)[C@H]1O` (stereo partly shown) [Rha C18], the “Treatment 2: Rhamnolipid and Filtration Cf” value ([1]; molar ratio 2 to 1) was 0.116 ± 0.029 mmol/L, the “Treatment 3: Rhamnolipid and Centrifugation Cc” value ([1]; molar ratio 2 to 1) was 0.228 ± 0.013 mmol/L and the “Treatment 1: Rhamnolipid Only Cr” value ([1]; molar ratio 5 to 1) was 0.121 ± 0.009 mmol/L. The “Treatment 2: Rhamnolipid and Filtration Cf” value ([1]; molar ratio 5 to 1) was 0.001 ± 0.002 mmol/L, the “Treatment 3: Rhamnolipid and Centrifugation Cc” value ([1]; molar ratio 5 to 1) was 0.088 ± 0.003 mmol/L and the “Treatment 1: Rhamnolipid Only Cr” value ([1]; molar ratio 10 to 1) was 0.331 ± 0.024 mmol/L. The “Treatment 2: Rhamnolipid and Filtration Cf” value ([1]; molar ratio 10 to 1) was 0.004 ± 0.001 mmol/L, the “Treatment 3: Rhamnolipid and Centrifugation Cc” value ([1]; molar ratio 10 to 1) was 0.051 ± 0.010 mmol/L and the “Treatment 1: Rhamnolipid Only Cr” value ([1]; molar ratio rhamnolipid:lanthanum 2 to 1) was 0.249 ± 0.009 mmol/L. For the same molecule, the “Treatment 1: Rhamnolipid Only (Rr) efficiency of removal” value ([1]; molar ratio 2 to 1) was “(16.5%)”, the “Treatment 2: Rhamnolipid and Filtration (Rf) efficiency of removal” value ([1]; molar ratio 2 to 1) was “(61.1%)” and the “Treatment 3: Rhamnolipid and Centrifugation (Rc) efficiency of removal” value ([1]; molar ratio 2 to 1) was “(23.4%)”. The “Treatment 1: Rhamnolipid Only (Rr) efficiency of removal” value ([1]; molar ratio 5 to 1) was “(59.4%)”, the “Treatment 2: Rhamnolipid and Filtration (Rf) efficiency of removal” value ([1]; molar ratio 5 to 1) was “(99.5%)” and the “Treatment 3: Rhamnolipid and Centrifugation (Rc) efficiency of removal” value ([1]; molar ratio 5 to 1) was “(70.6%)”. The “Treatment 2: Rhamnolipid and Filtration (Rf) efficiency of removal” value ([1]; molar ratio 10 to 1) was “(98.8%)”, the “Treatment 3: Rhamnolipid and Centrifugation (Rc) efficiency of removal” value ([1]; molar ratio 10 to 1) was “(82.8%)” and the “Treatment 2: Rhamnolipid and Filtration Cf” value ([2]; molar ratio 2 to 1) was 0.169 ± 0.015 mmol/L. The “Treatment 3: Rhamnolipid and Centrifugation Cc” value ([2]; molar ratio 2 to 1) was 0.216 ± 0.002 mmol/L, the “Treatment 1: Rhamnolipid Only Cr” value ([2]; molar ratio 5 to 1) was 0.215 ± 0.002 mmol/L and the “Treatment 2: Rhamnolipid and Filtration Cf” value ([2]; molar ratio 5 to 1) was 0.056 ± 0.012 mmol/L. The “Treatment 3: Rhamnolipid and Centrifugation Cc” value ([2]; molar ratio 5 to 1) was 0.141 ± 0.001 mmol/L, the “Treatment 1: Rhamnolipid Only Cr” value ([2]; molar ratio 10 to 1) was 0.304 ± 0.001 mmol/L and the “Treatment 2: Rhamnolipid and Filtration Cf” value ([2]; molar ratio 10 to 1) was 0.017 ± 0.002 mmol/L. For the same molecule, the “Treatment 3: Rhamnolipid and Centrifugation Cc” value ([2]; molar ratio 10 to 1) was 0.107 ± 0.004 mmol/L, the “Treatment 1: Rhamnolipid Only Cr” value ([2]; molar ratio rhamnolipid:magnesium 2 to 1) was 0.265 ± 0.002 mmol/L and the “Treatment 1: Rhamnolipid Only (Rr) efficiency of removal” value ([2]; molar ratio 2 to 1) was “(12.1%)”. The “Treatment 2: Rhamnolipid and Filtration (Rf) efficiency of removal” value ([2]; molar ratio 2 to 1) was “(37.0%)”, the “Treatment 3: Rhamnolipid and Centrifugation (Rc) efficiency of removal” value ([2]; molar ratio 2 to 1) was “(20.5%)” and the “Treatment 1: Rhamnolipid Only (Rr) efficiency of removal” value ([2]; molar ratio 5 to 1) was “(19.5%)”. The “Treatment 2: Rhamnolipid and Filtration (Rf) efficiency of removal” value ([2]; molar ratio 5 to 1) was “(79.0%)”, the “Treatment 3: Rhamnolipid and Centrifugation (Rc) efficiency of removal” value ([2]; molar ratio 5 to 1) was “(47.4%)” and the “Treatment 2: Rhamnolipid and Filtration (Rf) efficiency of removal” value ([2]; molar ratio 10 to 1) was “(93.7%)”. The “Treatment 3: Rhamnolipid and Centrifugation (Rc) efficiency of removal” value ([2]; molar ratio 10 to 1) was “(60.1%)”, the “Treatment 2: Rhamnolipid and Filtration Cf” value ([3]; molar ratio 2 to 1) was 0.027 ± 0.001 mmol/L and the “Treatment 3: Rhamnolipid and Centrifugation Cc” value ([3]; molar ratio 2 to 1) was 0.132 ± 0.001 mmol/L. The “Treatment 1: Rhamnolipid Only Cr” value ([3]; molar ratio 5 to 1) was 0.044 ± 0.008 mmol/L, the “Treatment 2: Rhamnolipid and Filtration Cf” value ([3]; molar ratio 5 to 1) was 0.000 ± 0.002 mmol/L and the “Treatment 3: Rhamnolipid and Centrifugation Cc” value ([3]; molar ratio 5 to 1) was 0.005 ± 0.002 mmol/L. The “Treatment 1: Rhamnolipid Only Cr” value ([3]; molar ratio 10 to 1) was 0.255 ± 0.015 mmol/L, the “Treatment 2: Rhamnolipid and Filtration Cf” value ([3]; molar ratio 10 to 1) was 0.000 ± 0.001 mmol/L and the “Treatment 3: Rhamnolipid and Centrifugation Cc” value ([3]; molar ratio 10 to 1) was 0.014 ± 0.001 mmol/L. The “Treatment 1: Rhamnolipid Only Cr” value ([3]; molar ratio rhamnolipid:lead 2 to 1) was 0.123 ± 0.002 mmol/L, the “Treatment 1: Rhamnolipid Only (Rr) efficiency of removal” value ([3]; molar ratio 2 to 1) was “(54.8%)” and the “Treatment 2: Rhamnolipid and Filtration (Rf) efficiency of removal” value ([3]; molar ratio 2 to 1) was “(90.1%)”. The “Treatment 3: Rhamnolipid and Centrifugation (Rc) efficiency of removal” value ([3]; molar ratio 2 to 1) was “(51.6%)”, the “Treatment 1: Rhamnolipid Only (Rr) efficiency of removal” value ([3]; molar ratio 5 to 1) was “(83.9%)” and the “Treatment 2: Rhamnolipid and Filtration (Rf) efficiency of removal” value ([3]; molar ratio 5 to 1) was “(99.9%)”. The “Treatment 3: Rhamnolipid and Centrifugation (Rc) efficiency of removal” value ([3]; molar ratio 5 to 1) was “(98.1%)”, the “Treatment 1: Rhamnolipid Only (Rr) efficiency of removal” value ([3]; molar ratio 10 to 1) was “(6.2%)” and the “Treatment 2: Rhamnolipid and Filtration (Rf) efficiency of removal” value ([3]; molar ratio 10 to 1) was “(99.9%)”. The “Treatment 3: Rhamnolipid and Centrifugation (Rc) efficiency of removal” value ([3]; molar ratio 10 to 1) was “(94.7%)”.

From patent US20240182513A1, “SEPARATION OF METAL IONS FROM A SAMPLE USING GLYCOLIPIDS” (ARIZONA BOARD OF REGENTS ON BEHALF OF THE UNIVERSITY OF …, priority 2021, published 2024)
